Like-named read-outs stand apart in the source and are kept apart here.
Experiments:
N. fowleri ATCC 30808™ = test: In vitro activity against Naegleria fowleri trophozoites (alamarBlue), ATCC 30808 strain; type: cell-based; details: for IC50: trophozoites, alamarBlue, 48 h, 37 °C, read-out: 50% inhibitory concentration (IC50) against N. fowleri ATCC 30808™
Description: (§1) The in vitro experiments were carried out using two different Naegleria fowleri type strains, ATCC 30808™ and ATCC 30215™. The cells were grown in axenic conditions as previously described in other works of our group. The strains were cultured in a level 3 biological security facility at the Instituto Universitario de Enfermedades Tropicales y Salud Pública de Canarias, Universidad de La Laguna, Spain.
(§2) An alamarBlue™-based colorimetric assay was used to determine the in vitro activity of the chamigrane-type sesquiterpenes. Briefly, a known concentration of the trophozoites (2 × 10^5 cells/mL) was incubated with serial dilutions of the compounds. After, the alamarBlue™ reagent was added and the plate was placed at 37 °C for 48 h. Finally, the fluorescence was read and a non-linear regression analysis with a 95% confidence limit, in order to reckon the 50% and 90% inhibitory concentration (IC50 and IC90), was performed.
(§3) The in vitro IC50, IC90 and CC50 were determined by a non-linear regression analysis with a 95% of confidence limit using the Graphpad Prism version 9.0 (GraphPad Software; CA; USA). Three independent experiments were performed to obtain each data, which is expressed as mean ± standard deviation (SD).

[1] = test system: Naegleria fowleri ATCC 30808™ trophozoites; test: Reactive oxygen species production (CellROX Deep Red); type: cell-based; details: IC90 (2.45 µM), 24 h
Description: (§4) For the determination of the type of cell death that induces (+)-elatol (1), different commercial kits were used. […] Next, the reagents corresponding to each kit were added, allowing the appearance of programmed cell death (PCD) processes in the cells to be observed. Moreover, the percentage of stained cells was determined using the EVOS™ M5000 Software (Invitrogen by Thermo Fisher Scientific). All experiments were performed in triplicate and five different images (×40) were processed each time.
To determine the oxidative damage, the CellROX Deep Red fluorescent assay (Thermo Fisher Scientific) was used. […] These reagents produce red fluorescence with maximum absorption/emission peaks of ~644/665 nm when facing the reactive oxygen species (ROS) in the cytoplasm.
(§5) The percentage of stained cells determination in the PCD assays was calculated using the EVOS™ M5000 Software (Invitrogen by Thermo Fisher Scientific). […] The bar graph of the mitochondrial membrane potential evaluation illustrates the mean fluorescence and SD emitted by the aggregate and monomer forms of the JC-1 stain. […] Moreover, in all the PCD assays, a one-way analysis of variance (ANOVA) was assessed to study the differences between the treated and negative control trophozoites. ** p < 0.01; *** p < 0.001; **** p < 0.0001 significant differences.

[2] = test system: Murine Macrophages J774.A1; test: In vitro cytotoxicity (alamarBlue); type: cell-based; details: mouse, 24 h
Description: (§6) The cytotoxicity assays were carried out in a murine macrophages cell line (ATCC TIB-67). The cells were incubated in Dulbecco’s Modified Eagle’s medium (GIBCO, Thermo Fisher Scientific, Madrid, Spain) (DMEM, w/v) supplemented with 10% (v/v) fetal bovine serum (FBS) and 10 µg/mL of gentamicin (Sigma-Aldrich, Madrid, Spain) at 37 °C in a 5% of CO2 atmosphere. The in vitro cytotoxicity of the compounds was determined following the alamarBlue ™ protocol mentioned in the previous section. Murine macrophages were incubated with serial dilutions of the evaluated molecules for 24 h at 37 °C and in presence of 5% of CO2. Finally, the 50% cytotoxic concentration (CC50) was determined after reading the fluorescence. The in vitro IC50, IC90 and CC50 were determined by a non-linear regression analysis with a 95% of confidence limit using the Graphpad Prism version 9.0 (GraphPad Software; CA; USA). Three independent experiments were performed to obtain each data, which is expressed as mean ± standard deviation (SD).

[3] = test system: Naegleria fowleri ATCC 30808™ trophozoites; test: ATP production (CellTiter-Glo); type: cell-based; details: IC90 (2.45 µM), 24 h
Description: as §4
Afterwards, to validate the mitochondrial damage, the levels of ATP produced in the amoebae treated with the IC90 of the compound were analyzed using the CellTiter-Glo® Luminescent Cell Viability Assay reagent (Promega Biotech Ibérica S.L, Madrid, Spain) following manufacturer’s instructions.

[4] = test system: Naegleria fowleri ATCC 30808™ trophozoites; test: Mitochondrial membrane potential (JC-1); type: cell-based; details: IC90 (2.45 µM), 24 h
Description: as §4
For determining mitochondrial damage in treated amoebae, two different assays were performed. Firstly, to measure the collapse of the transmembrane electrochemical gradient, a lipophilic cationic dye called JC-1 (Cayman Chemicals Vitro SA, Madrid, Spain) was used. […] When the membrane potential is high, the fluorophore will be found in the mitochondria in the j-aggregates form emitting red fluorescence at 595 nm. On the other hand, when membrane depolarization occurs, the reagent disperses and remains in its monomeric form showing green fluorescence at 535 nm.
The percentage of stained cells determination in the PCD assays was calculated using the EVOS™ M5000 Software (Invitrogen by Thermo Fisher Scientific). […] The bar graph of the mitochondrial membrane potential evaluation illustrates the mean fluorescence and SD emitted by the aggregate and monomer forms of the JC-1 stain. […]

[5] = test system: Naegleria fowleri cysts (ATCC 30808™); test: In vitro cysticidal activity (alamarBlue fluorometric assay); type: cell-based; details: ATCC30808, ATCC 30808™ cysts, 24 h incubation then 72 h with alamarBlue, read-out: IC50 against N. fowleri cysts (cysticidal activity)
Description: For the in vitro cysticidal activity assays, the Naegleria fowleri ATCC 30808™ strain was used. Cysts were obtained transferring the bactocasitone grown trophozoites to the MYAS medium and keeping them for ten days in slight agitation. The in vitro activity of the compounds against the Naegleria fowleri cyst was determined using an alamarBlue™-based fluorometric assay as previously described. Mature cysts were incubated with serial dilutions of the evaluated compound for 24 h at 37 °C. After that, the medium was removed and fresh bactocasitone was added. Later, the alamarBlue® reagent was placed and the plates were incubated for 72 additional hours at 37 °C. Finally, the EnSpire Multimode Plate Reader (PerkinElmer, Madrid, Spain) was used to read the fluorescence and calculate the IC50 as described in Section 4.3. The in vitro IC50, IC90 and CC50 were determined by a non-linear regression analysis with a 95% of confidence limit using the Graphpad Prism version 9.0 (GraphPad Software; CA; USA). Three independent experiments were performed to obtain each data, which is expressed as mean ± standard deviation (SD).

[6] = test system: Naegleria fowleri ATCC 30808™ trophozoites; test: Chromatin condensation (Hoechst 33342/PI double stain); type: cell-based; details: IC90 (2.45 µM), 24 h
Description: as §4
The condensed chromatin was detected with the double-stain apoptosis detection kit (Hoechst 33342/PI) (Life Technologies, Madrid, Spain). The Hoechst 33342 stain emits blue fluorescence in the presence of condensed chromatin while the Propidium iodide (PI) is able to travel through the membrane of dead cells and emit a red fluorescence.
as §5

N. fowleri ATCC 30215™ = test: In vitro activity against Naegleria fowleri trophozoites (alamarBlue), ATCC 30215 strain; type: cell-based; details: 37 °C, read-out: 50% inhibitory concentration (IC50) against N. fowleri ATCC 30215™
Description: as §1, §2, §3

[7] = test system: Naegleria fowleri (ATCC 30808™) trophozoites; type: cell-based; details: not told
Description: as §4
The permeability of the plasma membrane was assessed with the SYTOX Green® stain. The plasma membrane is impermeable to the dye in healthy conditions. However, when the permeability of the plasma membrane is compromised, the SYTOX Green® enters the cells, binds the DNA and emits an intense green fluorescence at 523 nm wavelength.
as §5

[8] = In vitro cytotoxicity (alamarBlue); type: cell-based, murine; details: mouse
Description: as §6

[9] = Naegleria fowleri, ATCC30808, 48 h
[10] = Naegleria fowleri, ATCC30215, 48 h
[11] = J774.A1 murine macrophage cell line (ATCC TIB-67), alamarBlue, 24 h, 37 °C, read-out: 50% cytotoxic concentration (CC50) against murine macrophages J774.A1

C=C1CC(O)C(Br)C(C)(C)C12CCC(C)=C(Cl)C2 (single isomer, unassigned; (+)) [(+)-Elatol (1), (+)-elatol]
IC90 (N. fowleri ATCC 30808™; Naegleria fowleri, ATCC30808, ATCC 30808™ strain): 2.45 µM | IC50 (N. fowleri ATCC 30808™): 1.08 ± 0.09 µM | ROS generation (CellROX Deep Red) [1]: induces the over-generation of ROS | CC50 [2]: 61.5 ± 13 µM | reduction of ATP production compared to untreated cells [3]: 82.11% | mitochondrial membrane potential (JC-1) [4]: depolymerization of the mitochondrial membrane potential | IC50 [5]: 1.14 µM | chromatin condensation (Hoechst 33342 fluorescence) [6]: intense blue fluorescence | propidium iodide staining (red fluorescence) [6]: absence of the red fluorescence | IC50 (N. fowleri ATCC 30215™; 48 h): 1.14 ± 0.09 µM | plasma membrane permeability (SYTOX Green fluorescence) [7]: plasma membrane is damaged in treated cells

C=C1CC(O)C(Br)C(C)(C)C12CCC(C)=C(Cl)C2 (single isomer, unassigned; (-)) [(−)-Elatol (2), (−)-elatol]
fold less potent than (+)-elatol (1) (N. fowleri ATCC 30808™; IC50 ratio against N. fowleri trophozoites): 34 fold | IC50 (N. fowleri ATCC 30808™): 36.8 ± 8.03 µM | CC50 [2]: > 150 µM | IC50 (N. fowleri ATCC 30215™; 48 h): 38 ± 7.61 µM

C=C1CC(O)C(Br)C(C)(C)C12CCC(C)(Cl)C(Br)C2 (single isomer, unassigned; (-)) [(−)-Rogiolol (5), (−)-rogiolol]
IC50 (N. fowleri ATCC 30808™; [9]): 22.5 ± 5.81 µM | CC50 at 24 h ([8]; 50% cytotoxic concentration (CC50) against murine macrophages J774.A1): 142 ± 17.2 µM | IC50 (N. fowleri ATCC 30215™; [10]): 9.71 ± 0.82 µM

C=C1C[C@H](O)CC(C)(C)[C@@]12CCC(C)=C(Cl)C2 [(+)-Debromoelatol (3), (+)-debromoelatol]
IC50 (N. fowleri ATCC 30808™; [9]): > 98.1 µM

C=C1C[C@H](O)[C@H](Br)C(C)(C)[C@]12CC=C(C)CC2 [(+)-Dechloroelatol (4), (+)-dechloroelatol]
IC50 (N. fowleri ATCC 30808™; [9]): > 83.5 µM

C=C1C[C@@H](O)[C@@H](Br)C(C)(C)[C@]12CC[C@@](C)(O)[C@@H](Cl)C2 [(+)-Dendroidiol (7), (−)-dendroidiol]
IC50 (N. fowleri ATCC 30808™; [9]): > 71.1 µM

C=C1CC[C@@H](Br)C(C)(C)[C@@]12CC[C@@](C)(Br)[C@H](Cl)C2 [(+)-Obtusane (10), (+)-obtusane]
IC50 (N. fowleri ATCC 30808™; [9]): > 62.7 µM

C=C1C[C@@H](O)[C@@H](Br)C(C)(C)[C@]12CC[C@](C)(Br)[C@@H](Cl)C2 [(+)-Obtusol (9), (+)-obtusol]
IC50 (N. fowleri ATCC 30808™; [9]): > 60.3 µM

CC1=CC[C@@H](Br)C(C)(C)[C@]12CC[C@](C)(Br)[C@@H](Cl)C2 [(−)-3,10-dibromo-4-chloro-alpha-chamigrane]
IC50 (N. fowleri ATCC 30808™; [9]): > 62.7 µM

C=C1C[C@@H](O)[C@@H](Br)C(C)(C)[C@]12CC[C@@](C)(Cl)[C@H](Br)C2 [(−)-Cartilagineol (8), (−)-cartilagenol]
IC50 (N. fowleri ATCC 30808™; [9]): > 60.3 µM

C[C@@H]1[C@H](O)[C@@H](C)/C=C/C=C/C=C/C=C/C=C/C=C/C=C/[C@H](O[C@@H]2O[C@H](C)[C@@H](O)[C@H](N)[C@@H]2O)C[C@@H]2O[C@](O)(C[C@@H](O)C[C@@H](O)[C@H](O)CC[C@@H](O)C[C@@H](O)CC(=O)O[C@H]1C)C[C@H](O)[C@H]2C(=O)O [Amphotericin B, reference compound]
IC50 (N. fowleri ATCC 30808™; [9]): 0.12 ± 0.03 µM | CC50 at 24 h [8, 11]: > 200 µM

CCCCCCCCCCCCCCCCOP(=O)([O-])OCC[N+](C)(C)C [Miltefosine, reference compound]
IC50 (N. fowleri ATCC 30808™; [9]): 38.7 ± 4.23 µM | CC50 at 24 h [8, 11]: 128 ± 8.85 µM | IC50 (N. fowleri ATCC 30215™; [10]): 81.6 ± 7.23 µM

From publication PMC10143968, “Chamigrane-Type Sesquiterpenes from Laurencia dendroidea as Lead Compounds against Naegleria fowleri” (Marine Drugs, 2023)
